The text below walks through data of patent US20190183843A9, “USE OF DIANHYDROGALACTITOL OR DERIVATIVES OR ANALOGS THEREOF FOR TREATMENT OF PEDIATRIC CENTRAL NERVOUS SYSTEM MALIGNANCIES” (DelMar Pharmaceuticals, Inc., priority 2015, published 2019).

The IC50 is the midpoint of a concentration-inhibition curve. A low value points to greater potency.

Like-named read-outs stand apart in the source and are kept apart here.

The test system of data set [1] is cisplatin-resistant 2780CP-16, OVCAR-10, Hey and OVCA-433 tumor models. In words: MTT growth inhibition assay, 5-day drug exposure. The note with it: 5-day exposure. Format: cell-based, human. The text has this: (§1) The analysis of cytotoxicity, depicted as IC50 (concentration inhibiting growth of cells by 50%) or as fraction of cells affected (Fa) at a specified concentration of drug, is based on the data generated from the MTT growth inhibition assay following a 5-day drug exposure period. The IC50 values were generated by fitting Fa values from a range of drug concentrations to a four-parameter logistic dose-response sigmoidal equation using the Graphpad Prism v.6 software. Resistance factors (for the ovarian panel) were calculated as the ratio of IC50 in the specific tumor model to the IC50 in A2780.
(§2) Cytotoxicity was determined against cisplatin-sensitive A2780 and cisplatin-resistant 2780CP-16, OVCAR-10, Hey and OVCA-433 tumor models with different status for p53 and mismatch repair (MMR) DNA repair system (A2780: p53 wild-type, MMR proficient; 2780CP-16: heterogenic p53 wt/V172Fmut, MMR deficient; OVCAR-10: p53 V172F mutant, MMR proficient; HEY: p53 P72R mutant, MMR proficient; OVCA-433: p53 P72R mutant, MMR proficient). IC50 for dianhydrogalactitol was about 0.5 μM in A2780 cells and in the 2-4 μM range for the cisplatin-resistant models. The activity (as IC50) of dianhydrogalactitol relative to cisplatin and oxaliplatin is shown as bar plots in FIG. 38. […] Oxaliplatin, in contrast, had good potencies against both cisplatin-sensitive (0.2 μM) and cisplatin-resistant cells (0.2-0.6 μM).
On the technique in general: Formazan colour is commonly taken as a measure of viable cells.

Data set [2] concerns MGMT-positive or -negative, MMR-proficient or -deficient cells. The note with it: cited from earlier work.
For data set [3] the following is noted: cited from earlier work.
The target in data set [4] is glycogen synthase kinase-30 (GSK-30) (Homo sapiens, UniProt P49841). The note with it: cited from earlier work.
Data set [5] relates to A2780 cells. As to the kind of experiment: MTT growth inhibition assay, 5-day drug exposure. The settings on record: 5-day exposure, cisplatin-sensitive A2780. The class given is cell-based, human.
Source text: as §1, §2

Sequence of glycogen synthase kinase-30 (GSK-30) (P49841 whole entry): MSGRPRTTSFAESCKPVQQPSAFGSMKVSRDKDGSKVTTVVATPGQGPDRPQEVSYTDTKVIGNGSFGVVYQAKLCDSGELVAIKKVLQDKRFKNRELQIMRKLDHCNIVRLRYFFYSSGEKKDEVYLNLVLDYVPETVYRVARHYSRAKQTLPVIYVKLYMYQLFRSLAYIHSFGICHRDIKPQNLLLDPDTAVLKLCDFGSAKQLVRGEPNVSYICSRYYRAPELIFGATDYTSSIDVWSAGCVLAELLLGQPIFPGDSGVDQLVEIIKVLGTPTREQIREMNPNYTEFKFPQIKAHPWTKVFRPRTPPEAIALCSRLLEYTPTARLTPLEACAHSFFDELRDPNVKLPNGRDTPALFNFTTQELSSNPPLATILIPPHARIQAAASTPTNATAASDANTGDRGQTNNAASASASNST

In data set [1], `N.N.[Cl][Pt][Cl]` [cisplatin] came in with an IC50 of 3000 to 8000 nM. The sensitivity result in data set [2] (MGMT Negative, MMR-Deficient) is given as “Resistant”; in data set [2] (MGMT Negative, MMR-Proficient), “Sensitive”; in data set [2] (MGMT Positive, MMR-Deficient) it was “Resistant”; in data set [2] (MGMT Positive, MMR-Proficient), “Sensitive”.

Consider `O[C@H]([C@H](O)[C@@H](O)CBr)[C@H](O)CBr` [dibromodulcitol], for which, in data set [3], the “absorption by the oral route” value is “rapid and fairly complete”.

Consider `CN1C(=O)/C(=C2/C(=O)Nc3ccccc32)c2ccccc21` [Meisoindigo], for which the “concentration inhibiting GSK” value in data set [4] is 5 to 50 nM.

Consider `O=C1[O][Pt]2([NH][C@@H]3CCCC[C@H]3[NH]2)[O]C1=O` [oxaliplatin, reference compound], for which the IC50 was 200 nM in data set [5] and 200 to 600 nM in data set [1].
